Reference: patent US5594001A, “Polycyclic systems, and derivatives thereof, as neurotransmitter release enhancers useful in the treatment of cognitive disorders” (The DuPont Merck Pharmaceutical Company, priority 1994, dated 1997)

How the values were obtained:
[1] = test system: ACh level in the rat hippocampus; test: Microdialysis, ACh levels in the rat hippocampus in vivo; set-up: species or system rat (male Wistar); conditions: for AUC, Area % under the curve / Peak, maximal % increase of ACh release over baseline / time of Peak after administration / Duration, minutes of release above statistical significance: Table IV
Description: Male Wistar Rats are anaesthetized and guide cannulas stereotaxically implanted into the brain at the level of the dorsal hippocampus. Following a minimum recovery period of 72 h, dialysis probes (0.5 mm diameter, 4.0 mm long, from BAS) are inserted into the hippocampus through the guide cannulas. The probes are perfused at a rate of 2 μl/min with artificial cerebrospinal fluid containing 100 μM physostigmine sulfate (a cholinesterase inhibitor). Rats are allowed to acclimate for 2 hours prior to sample collection. Dialysate samples are collected every 20 min (40 μl) and immediately injected onto a high performance liquid chromatograph equipped for electrochemical detection (HPLC-EC) of acetylcholine (ACh). Following collection of 3 baseline samples, drugs or vehicle control are administered in 0.01 ml/g body weight and dialysate samples are collected for an additional 3 h. The ACh peak heights of the 3 samples prior to drug administration are averaged together to determine baseline ACh levels. ACh peak heights post drug administration are measured and used to determine percent change over baseline ACh levels. At the end of experiments, probe placement is verified histologically.
ACh is separated by reverse phase chromatography (Hamilton PRP-1 column 150×4.5 mm) and converted to acetate, betaine and hydrogen peroxide on an immobilized enzyme reactor column (BAS). Hydrogen peroxide is then detected electrochemically. Mobile phase for the chromatography consists of 0.2M Na2 HPO4, 0.1 mM EDTA, 0.5 mM SOS, 0.9 mM TMA.Cl, with pH adjusted to 8.0 with phosphoric acid and […] Kathon CG (ESA) added to each liter of mobile phase to retard bacterial growth.
FIGS. 1 and 2 show the effects of fluorine substitution to the pendant groups of the anthrone and azafluorene core series on the ability of compounds to increase the level of ACh in the rat hippocampus in vivo. All compounds were tested at 5 mg/kg except Ex. No 64 which was administered at 1 mg/kg. […] This was observed even though the compound was administered by a route (i.p.) which should lead to greater bioavailability than the oral route. Example 68 of the present invention, the bis-fluorinated analog of Example 611 or U.S. Pat. No. 5,173,489, on the other hand, led to a 2-fold increase in ACh levels which was maintained for over 1 hour (FIG. 1). The anthrone compound Ex. No. 440 of U.S. Pat. No. 5,173,489, at 5 mg/kg, led to a peak ACh level of 72% over baseline (FIG. 2). Ex. No. 64 of the present invention, which is the bis-fluoro analog of Ex. No. 440 of U.S. Pat. No. 5,173,489, at 1 mg/kg, led to a delayed increase in ACh levels reaching a peak of over 100% above baseline (FIG. 2). In contrast to the observed effects of Example 440 of U.S. Pat. No. 5,173,489, the increase in ACh level after administration of Example 64 of the present invention was maintained for the entire duration of testing (3 hours).

[2] = test system: stimulus-induced acetylcholine release, slices from the parietal cortex; test: Neurotransmitter (ACh) release assay, rat cortex slices, K+ stimulated; type: cell-based, rat (male Wistar); conditions: Table III
Description: The neurotransmitter release activities of the compounds of this invention were determined using standard biochemical assay procedures for example, the neurotransmitter release assay as described below.
Neurotransmitter release assay.
The neurotransmitter (Ach) release activities of the compounds of this invention were determined by the assay as described by Nickolson, et al., Drug Development Research, (1990) 19: 285-300, a modification of the procedure described by Mulder, et al., Brain Res., (1974) 70: 372.
Male Wistar rats (Charies River) weighing 175-200 grams were used. Rats were decapitated and brains were dissected immediately. Slices (0.3 mm thick) from the parietal cortex were prepared (approximately 100 mg wet weight) and were incubated in 10 ml KrebsRinger medium (KR) containing NaCl (116 mM), KCl (3 mM), CaCl2 (1.3 mM), MgCl2 (1.2 mM), KH2 PO4 (1.2 mM), Na2 SO4 (1.2 mM), NaHCO3 (25.0 mM), and glucose (11.0 mM), to which was added 10 uCi ^3 H-choline (specific activity approximately 35 Ci/mM; NEN) and […] unlabeled choline to give a final concentration of one micromole. The brain preparations were incubated for 30 min. at 37° C. under a steady flow of 95% O2 /5% CO2. Under these conditions, part of the radioactive choline taken up by the preparation was converted into radioactive acetylcholine (ACh) by the cholinergic nerve endings stored in synaptic vesicles, and released upon depolarization by high potassium ion (K+) containing media.
After labelling of the ACh stores, the slices were washed three times with non-radioactive KR medium and transferred to a superfusion apparatus to measure the drug effects on ACh release. The superfusion apparatus consisted of 10 thermostated glass columns of 5 mm diameter that were provided with GF/F glass fiber filters to support the slices (approximately 10 mg tissue/column). Superfusion was carried out in KR-medium (0.3 ml/min.) containing […] hemicholine-3 (HC-3). The HC-3 prevents the reuptake of choline formed during the superfusion from phospholipids and released ACh, which would be converted into unlabeled ACh and released in preference to the preformed labeled ACh. The medium was delivered by a 25-channel peristaltic pump (Ismatec by Brinkman) and warmed to 37° C. in a thermostated stainless steel coil before entering the superfusion column. Each column was provided with a 4-way slider valve (Beckmann instruments) which allowed rapid change of low to high K+/KR-medium, and with two 10-channel 3-way valves that were used to change from drug-free to drug-containing low and high K+/KR-medium. After 15 min. of washout of non-specifically bound radioactivity, collection of 4 min. fractions was initiated. After three 4 min. collections, the original medium was changed to a KR-medium in which the KCl concentration had been increased to 25 mM (high K+ medium) (S1). Depolarization-induced stimulation of release by high K+/KR-medium lasted for 4 min. Drug free low and high K+/KR-media were then substituted by drug- and vehicle-containing low- and high-K+/KR-medium, and superfusion was continued for three 4 min. collections with low K+/KR-medium, one 4 min. collection with high K+/KR-medium (s2), and two 4 min. collections with low K+/KR-medium.
Drug was added to the media by 100-fold dilutions of appropriate concentrations of the drug (in 0.9% saline) with either low- or high-K+/KR-medium. For comparative purposes, linopirdine was also run.
All superfusion fractions were collected in liquid scintillation counting vials. After superfusion, the slices were removed from the superfusion columns and extracted with 1.0 ml of 0.1N HCl. Liquiscint (NEN) counting fluid (12 ml) was added to superfusion fractions and extracts, and the samples were counted in a Packard Tricarb Liquid Scintillation Counter. No corrections were made for quenching. […]

[3] = 1 mg/kg, vehicle methocel, NSP = no significant points
[4] = 5 mg/kg, vehicle methocel, NSP = no significant points
[5] = 5 mg/kg, vehicle water, NSP = no significant points

Row | Compound | AUC, Area % under the curve ([1]; 1 mg/kg, vehicle methocel) | Peak, maximal % increase of ACh release over baseline ([1]; 1 mg/kg, vehicle methocel) | time of Peak after administration ([1]; 1 mg/kg, vehicle methocel) | Duration, minutes of release above statistical significance [1, 3] | AUC, Area % under the curve ([1]; 5 mg/kg, vehicle methocel) | Peak, maximal % increase of ACh release over baseline ([1]; 5 mg/kg, vehicle methocel) | time of Peak after administration ([1]; 5 mg/kg, vehicle methocel) | Duration, minutes of release above statistical significance [1, 4] | AUC, Area % under the curve ([1]; 5 mg/kg, vehicle water) | Peak, maximal % increase of ACh release over baseline ([1]; 5 mg/kg, vehicle water) | time of Peak after administration ([1]; 5 mg/kg, vehicle water) | Duration, minutes of release above statistical significance [1, 5] | EC50 [2] | further results
1 | Fc1cc(CC2(Cc3ccnc(F)c3)c3ccccc3-c3ncccc32)ccn1 [Example 68, 5,5-Bis((2-fluoro-4-pyridinyl)methyl)-5H-indeno[1,2-b]pyridine] | 304 ± 88% | 74 ± 29% | 100 min | 120 min | 942 ± 324% | 201 ± 68% | 80 min | > 80 min | 871 ± 272% | 121 ± 25% | 100 min | 120 min | 760 nM | increase in ACh levels ([1]; 5 mg/kg oral, FIG. 1): 2 fold; time for which the increase in ACh levels was maintained ([1]; 5 mg/kg oral, FIG. 1): over 1 hour; AUC, Area % under the curve ([1]; 2 mg/kg, vehicle water): 240 ± 82%; Peak, maximal % increase of ACh release over baseline ([1]; 2 mg/kg, vehicle water): 47 ± 12%; time of Peak after administration ([1]; 2 mg/kg, vehicle water): 40 min
2 | Fc1cc(CC2(Cc3ccncc3)c3ccccc3-c3ncccc32)ccn1 (stereo not shown) [Example 62] |  |  |  |  |  |  |  |  | 160 ± 187% | 47 ± 32% | 40 min | NSP | 300 nM | AUC, Area % under the curve ([1]; 10 mg/kg, vehicle water): 221 ± 85%; Duration, minutes of release above statistical significance ([1]; 10 mg/kg, vehicle water): > 40 min; Peak, maximal % increase of ACh release over baseline ([1]; 10 mg/kg, vehicle water): 52 ± 10%; time of Peak after administration ([1]; 10 mg/kg, vehicle water): 20 min
3 | Fc1cc(CC2(Cc3ccnc(F)c3)c3ccccc3-c3ncncc32)ccn1 [Example 81, 5,5-Bis((2-fluoro-4-pyridinyl)methyl)-5H-indeno-[1,2-d]pyrimidine] |  |  |  |  | 250 ± 68% | 53 ± 17% | 60 min | 100 min |  |  |  |  | 640 nM | 
4 | Fc1cc(CC2(Cc3ccnc(F)c3)c3ccccc3Oc3ncccc32)ccn1 [Example 67, 9,9-Bis((2-fluoro-4-pyridinyl)methyl)-4-azaxanthene] | 666 ± 212% | 123 ± 62% | 200 min | > | 1423 ± 595% | 199 ± 80% | 160 min | > |  |  |  |  | 640 nM | 
5 | O=C1c2ccccc2C(Cc2ccnc(F)c2)(Cc2ccnc(F)c2)c2ccccc21 [Example 64, 10,10-Bis((2-fluoro-4-pyridinyl)methyl)-9(10H)-anthracenone] | 711 ± 158% | 115 ± 27% | 180 min | > |  |  |  |  |  |  |  |  | 660 nM | peak ACh level above baseline ([1]; 1 mg/kg oral, FIG. 2, delayed increase): over 100%; time for which the increase in ACh level was maintained ([1]; 1 mg/kg oral, FIG. 2, entire duration of testing): ≥ 3 h; AUC, Area % under the curve ([1]; 0.5 mg/kg, vehicle methocel): 253 ± 156%; Peak, maximal % increase of ACh release over baseline ([1]; 0.5 mg/kg, vehicle methocel): 40 ± 21%; time of Peak after administration ([1]; 0.5 mg/kg, vehicle methocel): 40 min; Duration, minutes of release above statistical significance ([1]; 0.5 mg/kg, vehicle methocel, NSP = no significant points): NSP
